Data as given in article PMC4589404, “Entamoeba histolytica Dmc1 Catalyzes Homologous DNA Pairing and Strand Exchange That Is Stimulated by Calcium and Hop2-Mnd1” (PLoS ONE, 2015).

T1: ehDmc1 (Entamoeba histolytica, UniProt C4LTR6)
T1 construct: gene EHI_050430; 334 amino acid protein with N-terminal six-histidine tag
T1 sequence (C4LTR6 1-347): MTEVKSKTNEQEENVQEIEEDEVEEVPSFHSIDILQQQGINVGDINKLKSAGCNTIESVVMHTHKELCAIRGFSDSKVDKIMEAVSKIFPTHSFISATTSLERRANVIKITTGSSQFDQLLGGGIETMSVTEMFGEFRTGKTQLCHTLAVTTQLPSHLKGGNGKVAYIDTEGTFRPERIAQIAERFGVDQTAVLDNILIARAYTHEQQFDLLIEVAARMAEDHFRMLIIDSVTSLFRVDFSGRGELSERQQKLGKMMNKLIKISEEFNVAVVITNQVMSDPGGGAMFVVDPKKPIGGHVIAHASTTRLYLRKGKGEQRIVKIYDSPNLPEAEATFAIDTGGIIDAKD

B1: ehDmc1 (Entamoeba histolytica HM-1:IMSS) (protein)
chain: T1 sequence (C4LTR6 1-347)
notes: 334 amino acid protein with N-terminal six-histidine tag

Assays:
[1] = biological target: T1, ehDmc1; experiment: D-loop assay with purified protein (IC50); also ssDNA EMSA, nuclease protection and ATPase assays; format: biochemical
[2] = substrate: Nc1ncnc2c1ncn2[C@@H]1O[C@H](COP(=O)(O)OP(=O)(O)OP(=O)(O)O)[C@@H](O)[C@H]1O; experiment: Michaelis-Menten ATP hydrolysis assay (TLC), purified protein; Km; format: biochemical, Entamoeba histolytica; details: Mg2+

Molecule | IC50 [1] [µM] | Km [2] [µM]
O=S(=O)(O)c1cc(N=C=S)ccc1C=Cc1ccc(N=C=S)cc1S(=O)(=O)O [DIDS, 4,4′-diisothiocyanostilbene-2,2′-disulfonic acid] | 4.5 ± 0.23 | 
B1 |  | 480 ± 50
